In publication PMC3516535, “Rhesus Macaque Theta Defensins Suppress Inflammatory Cytokines and Enhance Survival in Mouse Models of Bacteremic Sepsis” (PLoS ONE, 2012):
Bridge positions count the residues as written; N and C are the ends. Ends that are not written are not given here. Peptide text beside a SMILES is read from it.

What was measured:
[1] = system: human EDTA-anti-coagulated blood diluted 1∶10; test: TNF release assay in stimulated diluted whole blood (ELISA); format: cell-based; conditions: 4 h; for anti-TNF effectiveness relative to RTD-1 / hierarchy of anti-TNF potencies: E. coli-stimulated blood, N = 2
THP-1 monocytic cells = test: TNF release assay in LPS-stimulated THP-1 monocytes (ELISA); format: cell-based, human; conditions: 4 h, N = 2; for hierarchy of anti-TNF potencies: THP-1 in RPMI +5% human EDTA-plasma, 1 ng/ml K12 LPS
Experimental: THP-1 monocytic cells (ATCC, Manassas, VA) were grown and maintained in RPMI-1640 medium containing 10% fetal bovine serum and penicillin/streptomycin. Cells were harvested by centrifugation, washed with RPMI-1640 medium and suspended at 5×10^5 cells/ml in fresh medium containing 5% human EDTA plasma.
Peptides (RTDs 1–5, human neutrophil α-defensins) were aliquoted into wells of pyrogen-free 12- or 24-well plates wherein final peptide concentrations were 0–10 µg/ml. Wells were inoculated with 1×10^5 CFU/ml S. aureus or 100 CFU/ml E. coli, or 1–3 ng/ml of E. coli K12 LPS. Samples (5–10 µl) containing peptide or bacteria/LPS were placed on opposite sides of the plate well. Mixing commenced with the addition of 0.5 to 2.0 ml of 1∶10 diluted blood, PBLs (5×10^5/ml), or THP-1 cells (2–5×10^5 cells/ml). Plates were incubated at 37°C in 5% CO2 for 4 h with gentle mixing. […] Incubation mixtures were centrifuged at 200× g for 10 min at 22°C and supernatants were clarified by centrifugation at 23,000× g for 15 min at 4°C. Supernatant TNF was quantified by sandwich ELISA (OptEIA II; BD Biosciences; Hu TNF-α, Invitrogen) per suppliers’ directions, using a SpectraMax Plate Reader.

CLP sepsis = system: CLP sepsis; parameters: method as in PMID 12545019; conditions: multiple doses; cited from earlier work
lethal bacteremia = conditions: single systemic administration at time of bacterial challenge; cited from earlier work
Excerpt: The macrocyclic structure of θ-defensins confers remarkable stability. […] RTD-1 was also well-tolerated when administered intravenously or subcutaneously to mice, rats, and chimpanzees. Following repeated injections, neither of two chimpanzees produced anti-RTD-1 antibody. […] The discovery of antimicrobial peptides and their proven roles in host defense has prompted studies to evaluate dive ...

## CC(C)C[C@@H]1NC(=O)[C@@H]2CSSC[C@H](NC(=O)[C@H](CCCNC(=N)N)NC(=O)[C@@H]3CSSC[C@H](NC1=O)C(=O)N[C@@H](CCCNC(=N)N)C(=O)N[C@@H](CCCNC(=N)N)C(=O)NCC(=O)N[C@@H](C(C)C)C(=O)N3)C(=O)N[C@@H](CC(C)C)C(=O)N[C@H]1CSSC[C@H](NC(=O)[C@H](C(C)C)NC(=O)CNC(=O)[C@H](CCCNC(=N)N)NC(=O)[C@H](CCCNC(=N)N)NC1=O)C(=O)N[C@@H](CCCNC(=N)N)C(=O)N2 [RTD-2] (cyclo(CLCRRGVCRCLCRRGVCR); disulfide 1-10, 3-8, 12-17)
[1]
  anti-TNF effectiveness relative to RTD-1: substantially more effective than RTD-1
  hierarchy of anti-TNF potencies: RTD-5>2>1>4>3
THP-1 monocytic cells
  hierarchy of anti-TNF potencies: RTD-5>2>1>4>3

## PG-1: porcine protegrin (RGGRLCYCRRRFCVCVGR; ends and bridges not checked; cysteine pairing not given here; UniProt P32194 131-148, looked up)
CLP sepsis
  endotoxin-neutralizing effect: little endotoxin-neutralizing effect
  therapeutic effect compared to vehicle control: no therapeutic effect

## HNP-2: human neutrophil α-defensin purified from human neutrophils (CYCRIPACIAGERRYGTCIYQGRLWAFCC; ends and bridges not checked; cysteine pairing not given here; UniProt P59665 66-94, looked up) [reference compound]
[1]; E. coli-stimulated, 0–10 µg/ml peptide
  effect on stimulated TNF release: no inhibitory effect
THP-1 monocytic cells; THP-1, 1 ng/ml K12 LPS
  effect on stimulated TNF release: no inhibitory effect

## CC[C@H](C)[C@@H]1NC(=O)CNC(=O)[C@H](CC(C)C)NC(=O)[C@H](C(C)C)NC(=O)[C@@H]2CSSC[C@H](NC1=O)C(=O)N[C@@H](CCCNC(=N)N)C(=O)N[C@H]1CSSC[C@H](NC(=O)[C@H](CCCNC(=N)N)NC(=O)[C@@H]3CSSC[C@H](NC(=O)[C@H]([C@@H](C)CC)NC1=O)C(=O)N[C@@H](CCCNC(=N)N)C(=O)N[C@@H](CCCNC(=N)N)C(=O)NCC(=O)N[C@@H](C(C)C)C(=O)N3)C(=O)N[C@@H]([C@@H](C)CC)C(=O)N2 [RTD-5] (cyclo(CICRRGVCRCICVLGICR); disulfide 1-10, 3-8, 12-17)
[1]
  anti-TNF effectiveness relative to RTD-1: substantially more effective than RTD-1
  hierarchy of anti-TNF potencies: RTD-5>2>1>4>3
THP-1 monocytic cells
  hierarchy of anti-TNF potencies: RTD-5>2>1>4>3

## CC[C@H](C)[C@@H]1NC(=O)[C@@H]2CSSC[C@H](NC(=O)[C@H](CCCNC(=N)N)NC(=O)[C@@H]3CSSC[C@H](NC1=O)C(=O)N[C@@H]([C@@H](C)O)C(=O)N[C@@H](CCCNC(=N)N)C(=O)NCC(=O)N[C@@H](Cc1ccccc1)C(=O)N3)C(=O)N[C@@H]([C@@H](C)CC)C(=O)N[C@H]1CSSC[C@H](NC(=O)[C@H](Cc3ccccc3)NC(=O)CNC(=O)[C@H](CCCNC(=N)N)NC(=O)[C@H]([C@@H](C)O)NC1=O)C(=O)N[C@@H](CCCNC(=N)N)C(=O)N2 [RTD-3] (cyclo(CICTRGFCRCICTRGFCR); disulfide 1-10, 3-8, 12-17)
[1]
  anti-TNF effectiveness relative to RTD-1: less active
  hierarchy of anti-TNF potencies: RTD-5>2>1>4>3
THP-1 monocytic cells
  hierarchy of anti-TNF potencies: RTD-5>2>1>4>3

## LL-37: antimicrobial peptide derived from human cells (LLGDFFRKSKEKIGKEFKRIVQRIKDFLRNLVPRTES; Antibacterial peptide LL-37; UniProt P49913 134-170, looked up)
Lethal bacteremia
  protection against lethal bacteremia: Protection

## indolicidin: antimicrobial peptide from ungulates (ILPWKWPWWPWRR; ends and bridges not checked; UniProt P33046 131-143, looked up)
Lethal bacteremia
  protection against lethal bacteremia: Protection

## CC[C@H](C)[C@@H]1NC(=O)CNC(=O)[C@H](CC(C)C)NC(=O)[C@H](C(C)C)NC(=O)[C@@H]2CSSC[C@H](NC1=O)C(=O)N[C@@H](CCCNC(=N)N)C(=O)N[C@H]1CSSC[C@H](NC(=O)[C@H](CCCNC(=N)N)NC(=O)[C@@H]3CSSC[C@H](NC(=O)[C@H]([C@@H](C)CC)NC1=O)C(=O)N[C@@H]([C@@H](C)O)C(=O)N[C@@H](CCCNC(=N)N)C(=O)NCC(=O)N[C@@H](Cc1ccccc1)C(=O)N3)C(=O)N[C@@H]([C@@H](C)CC)C(=O)N2 [RTD-4] (cyclo(CICTRGFCRCICVLGICR); disulfide 1-10, 3-8, 12-17)
[1]
  anti-TNF effectiveness relative to RTD-1: less active
  hierarchy of anti-TNF potencies: RTD-5>2>1>4>3
THP-1 monocytic cells
  hierarchy of anti-TNF potencies: RTD-5>2>1>4>3
